According to patent US20050049299A1, “Selective inhibitors of stat-3 activation and uses thereof” (priority 2003, published 2005):

Assays:
Type in all cases: cell-based, human
MM.1 cells = assay: IL-6-induced proliferation of MM.1 cells; conditions: curcumin 10 μM, 48 h, serum-free
Protocol: FIGS. 7A-B show& that IL-6 induces proliferation of human multiple myeloma cells and curcumin inhibits it. […] Cell proliferation assays were performed as described below. Results are shown as mean (±s.d.) of percent [^3H] thymidine incorporation or percent proliferation by MTT of triplicate cultures compared to the untreated control.
The antiproliferative effects of curcumin against different multiple myeloma cell lines were determined by the MTT dye uptake method as described earlier (28). Briefly, the cells (5000/well) were incubated in triplicate in a 96-well plate in the presence or absence of indicated test samples in a final volume of 0.1 ml for 24 h at 37° C. […] The OD at 570 nm was measured using a 96-well multiscanner autoreader (Dynatech MR 5000), with the extraction buffer serving as blank. Percent cell viability cell viability was calculated using the following formula: Percent cell viability=(OD of the experiment samples/OD of the control)×100.
The antiproliferative effects of curcumin were also monitored by the thymidine incorporation method. […] Six hours before the completion of experiment, cells were pulse treated with 0.5 μCi [^3H]thymidine, and the uptake of [^3H]thymidine was monitored using a Matrix-9600 β-counter (Packard Instruments, Downers Grove, Ill.). […]
Whether curcumin suppresses the proliferative effects of IL-6 was determined.

STAT5 phosphorylation = assay: Constitutive STAT5 phosphorylation in U266 cells (Western blot); conditions: 50 μM, conditions of complete STAT3 phosphorylation inhibition
Protocol: (§1) U266 cells (2×10^6) were treated with the indicated concentrations of curcumin for 1 h, or treated with 50 μM curcumin for the indicated durations and levels of phosphorylated-STAT3 (upper panel) and STAT3 (lower panel) were examined in whole cell extracts by Western Blotting. […] U266 cells (2×10^6) were treated with 50 μM curcumin for indicated durations, and examined for phosphorylated and nonphosphorylated-STAT3, and STAT5. […] U266 cells (2×10^6) were preincubated with curcumin (50 μM) for indicated durations before treatment with IFN-α (10 ng/ml) for additional 30 min and then examined for phosphorylated and nonphosphorylated-STAT1.
For detection of STAT proteins, whole-cell extracts were prepared by lysing the curcumin-treated cells in lysis buffer (20 mM Tris, pH 7.4, 250 mM NaCl, 2 mM EDTA, pH 8.0, 0.1% Triton-X100, 0.01 mg/ml aprotinin, 0.005 mg/ml leupeptin, 0.4 mM PMSF, and 4 mM NaVO4). Lysates were then spun at 14000 rpm for 10 min to remove insoluble material, and resolved on a 7.5% gel. After electrophoresis, the proteins were electrotransferred to a nitrocellulose membrane, blocked with 5% nonfat milk, and probed with anti-STAT antibodies (1:1000) overnight at 4° C. The blot was washed, exposed to HRP-conjugated secondary antibodies for 1 h, and finally examined by chemiluminescence (ECL, Amersham Pharmacia Biotech. Arlington Heights, Ill.). […]

multiple myeloma cells = assay: Proliferation of multiple myeloma cells, curcumin vs AG490 (data not shown); conditions: 100 μM, 24 hours (data not shown)
MDA 1986LN cells = assay: Proliferation of MDA 1986LN cells (MTT assay)
Protocol: MDA 1986LN cells (2×10^6 cells) were treated with indicated concentrations of AG490 for 8 h and whole extracts prepared. These whole-cell extracts (30 μg) were resolved on 7.5% SDS-PAGE, electrotransferred to a nitrocellulose membrane, probed for p-STAT3 (upper panel), striped and reprobed for STAT3 (middle panel) and β-actin (lower panel). […] The cells were treated with AG490 (100 μM) for the indicated durations and whole cell extracts prepared and analyzed as mentioned earlier. FIG. 15C compares the effect of curcumin and AG490 on proliferation of MDA 1986LN cells by MTT assay.
Further, the proliferation of MDA 1986LN cells when treated with curcumin was compared with AG490 treated cells by performing MTT assay.

STAT3 phosphorylation = assay: Constitutive STAT3 phosphorylation in U266 cells (Western blot)
Protocol: as §1
U266 cells (2×10^6 cells) were treated with 50 μM curcumin for the indicated durations (left panels) or treated for 1 h and washed with PBS two times to remove curcumin before resuspending in fresh medium. Cells were removed at indicated times and lysed to prepare the whole cell extract (right panels). Thirty micrograms of whole cell extracts were resolved on 7.5% SDS-PAGE, electrotransferred to a nitrocellulose membrane, probed for the phosphorylated-STAT3 (upper panels) and stripped and reprobed for STAT3 (middle panels) and β-actin (lower panels).
Thirty micrograms of whole-cell extract was resolved on 7.5% SDS-PAGE, electrotransferred to a nitrocellulose membrane, probed for the phospho-STAT3 (upper panel), stripped, and reprobed for STAT3 (middle panel) and β-actin (lower panel).
For detection of STAT proteins, whole-cell extracts were prepared by lysing the curcumin-treated cells in lysis buffer (20 mM Tris, pH 7.4, 250 mM NaCl, 2 mM EDTA, pH 8.0, 0.1% Triton-X100, 0.01 mg/ml aprotinin, 0.005 mg/ml leupeptin, 0.4 mM PMSF, and 4 mM NaVO4). Lysates were then spun at 14000 rpm for 10 min to remove insoluble material, and resolved on a 7.5% gel. After electrophoresis, the proteins were electrotransferred to a nitrocellulose membrane, blocked with 5% nonfat milk, and probed with anti-STAT antibodies (1:1000) overnight at 4° C. The blot was washed, exposed to HRP-conjugated secondary antibodies for 1 h, and finally examined by chemiluminescence (ECL, Amersham Pharmacia Biotech. Arlington Heights, Ill.).
Whether curcumin inhibits the constitutive STAT3 phosphorylation in U266 was investigated. U266 cells were incubated either with different concentrations of curcumin for 1 h or with 50 μM curcumin for different times. Curcumin inhibited the constitutively active STAT3 in a dose-(FIG. 1A) and time-(FIG. 1B) dependent manner. Curcumin-induced inhibition could be observed as early as 10 min and with a concentration as low as 10 μM.
Whether curcumin-induced inhibition of STAT3 phosphorylation was reversible was further examined. U266 cells were first treated for 60 min with curcumin, and then the cells were washed twice with PBS to remove curcumin. The cells were then cultured in the fresh medium for various durations, and the levels of phosphorylated STAT3 were measured.
In comparison, treatment of cells with 50 μM curcumin for 60 minutes was sufficient to inhibit STAT3 phosphorylation (see FIGS. 1A and 1B).

SMILES: COc1cc(/C=C/C(=O)CC(=O)/C=C/c2ccc(O)c(OC)c2)ccc1O [curcumin, diferuloylmethane]
- IL-6-induced cell proliferation in MM.1 cells (MM.1 cells): inhibited IL-6-induced cell proliferation
- levels of constitutively phosphorylated STAT5 (STAT5 phosphorylation): neither altered the levels of constitutively phosphorylated STAT5
- proliferation of multiple myeloma cells (multiple myeloma cells): completely suppressed
- inhibition of proliferation of MDA 1986LN cells compared with AG490 (MDA 1986LN cells): more efficiently that AG490
- dose needed to suppress STAT3 phosphorylation (comparison AG490 vs curcumin) (STAT3 phosphorylation): 10 µM
- earliest time at which inhibition of constitutive STAT3 phosphorylation could be observed (STAT3 phosphorylation; U266 cells, 50 μM curcumin): 10 min
- treatment time sufficient to inhibit STAT3 phosphorylation (STAT3 phosphorylation; U266 cells, 50 μM curcumin): 60 min
- inhibition of constitutive STAT3 phosphorylation (STAT3 phosphorylation; U266 cells, 50 μM, 1 h): completely inhibited
- lowest concentration at which inhibition of constitutive STAT3 phosphorylation could be observed (STAT3 phosphorylation; U266 cells, 1 h): 10 µM
- time to complete reversal of STAT3 phosphorylation inhibition after removal of curcumin (STAT3 phosphorylation; U266 cells, 60 min treatment then washed): ≤ 24 h
- overall expression of STAT3 protein (STAT3 phosphorylation; U266 cells, curcumin treatment): did not alter the overall expression of STAT3 protein
- exposure needed to suppress STAT3 phosphorylation (comparison AG490 vs curcumin) (STAT3 phosphorylation; curcumin): 30 min
